Values quoted from earlier work in patent publication US20060068015A1, “Solid dosage form comprising a fibrate and a statin” (priority 2003, published 2006).

Key:
[1] = for solubility in water: water / distilled water

## CC[C@H](C)C(=O)O[C@H]1C[C@H](O)C=C2C=C[C@H](C)[C@H](CC[C@@H](O)C[C@@H](O)CC(=O)[O-])[C@H]21.[Na+] (relative stereo) [Pravastatin sodium, 1-naphthalene-heptanoic acid, 1,2,6,7,8,8a-hexahydro-(beta), (beta),6-trihydroxy-2-methyl-8-(2-methyl-1-oxobutoxy)-, monosodium salt, [1S-[1(alpha)((beta)S*,(beta)S*),2(alpha),6(alpha), 8(beta)(R*),8a(alpha)]]-]
[1]; acetone
  solubility in acetone: practically insoluble
[1]; acetonitrile
  solubility in acetonitrile: practically insoluble
[1]; chloroform
  solubility in chloroform: practically insoluble
[1]; ether
  solubility in ether: practically insoluble

## CC(C)c1c(C(=O)Nc2ccccc2)c(-c2ccccc2)c(-c2ccc(F)cc2)n1CC[C@@H](O)C[C@@H](O)CC(=O)O [Atorvastatin]
Oral administration
  systemic availability of HMG-COA reductase inhibitory activity: approximately 30%

## CC(C)(Oc1ccc(C(=O)c2ccc(Cl)cc2)cc1)C(=O)O [Fenofibric acid]
In vivo
  elimination half-life: about 20 hours

## CC[C@H](C)C(=O)O[C@H]1C[C@H](O)C=C2C=C[C@H](C)[C@H](CC[C@@H](O)C[C@@H](O)CC(=O)O)[C@H]21 [Pravastatin]
Oral administration
  bioavailability: about 30%
[1]
  solubility in water: water-soluble

## CC(C)c1nc(N(C)S(C)(=O)=O)nc(-c2ccc(F)cc2)c1/C=C/[C@@H](O)C[C@@H](O)CC(=O)O [Rosuvastatin]
Oral administration
  bioavailability: about 50%
[1]
  solubility in water: poor water-solubility

## CC(C)n1c(/C=C/C(O)CC(O)CC(=O)O)c(-c2ccc(F)cc2)c2ccccc21 (stereo not shown) [fluvastatin]
[1]
  solubility in water: water-soluble

## CC[C@H](C)C(=O)O[C@H]1C[C@@H](C)C=C2C=C[C@H](C)[C@H](CC[C@@H]3C[C@@H](O)CC(=O)O3)[C@H]21 [lovastatin]
[1]
  solubility in water: poor water-solubility

## O=C(O)C[C@H](O)C[C@H](O)/C=C/c1c(C2CC2)nc2ccccc2c1-c1ccc(F)cc1 [pitavastatin]
[1]
  solubility in water: poor water-solubility
